Test [1] has as its target T1, 3-oxo-5-alpha-steroid 4-dehydrogenase 1 (Homo sapiens, UniProt P18405).
T1 sequence (P18405 whole entry): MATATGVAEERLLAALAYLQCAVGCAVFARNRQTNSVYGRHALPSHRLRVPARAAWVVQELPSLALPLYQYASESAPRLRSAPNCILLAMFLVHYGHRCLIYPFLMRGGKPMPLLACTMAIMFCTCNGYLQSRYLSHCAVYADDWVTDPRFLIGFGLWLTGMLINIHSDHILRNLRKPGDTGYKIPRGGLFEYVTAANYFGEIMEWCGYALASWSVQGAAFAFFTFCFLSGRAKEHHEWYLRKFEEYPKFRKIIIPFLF
Put plainly: Binding affinity for human 5 alpha reductase 1 isozyme.

Test [2] has as its target Alpha-1B adrenergic receptor (Mesocricetus auratus) (UniProt P18841). Briefly: Binding affinity was tested on cloned hamster Alpha-1B adrenergic receptor.

Chain of Alpha-1B adrenergic receptor (Mesocricetus auratus) (P18841 whole entry, looked up): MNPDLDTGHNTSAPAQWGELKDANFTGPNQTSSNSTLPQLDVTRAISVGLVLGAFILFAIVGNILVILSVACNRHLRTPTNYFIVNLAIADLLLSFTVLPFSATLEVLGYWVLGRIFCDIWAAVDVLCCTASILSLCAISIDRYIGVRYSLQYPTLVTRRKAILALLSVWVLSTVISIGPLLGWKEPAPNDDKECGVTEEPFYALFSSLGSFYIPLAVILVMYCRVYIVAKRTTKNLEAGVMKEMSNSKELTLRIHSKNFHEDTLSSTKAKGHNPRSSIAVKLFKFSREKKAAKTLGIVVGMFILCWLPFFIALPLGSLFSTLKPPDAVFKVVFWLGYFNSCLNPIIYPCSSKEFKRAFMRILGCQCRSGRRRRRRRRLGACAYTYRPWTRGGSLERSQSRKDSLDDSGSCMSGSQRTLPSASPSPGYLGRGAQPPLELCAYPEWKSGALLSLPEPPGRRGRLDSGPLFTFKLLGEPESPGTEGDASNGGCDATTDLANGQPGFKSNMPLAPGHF

Usually Ki stands for the dissociation constant of the complex between target and ligand, obtained from inhibition or displacement. Low values mean higher affinity, high ones lower affinity. Regarding `C[C@]12CCC(=O)C(Cl)C1=NCC1C2CC[C@@]2(C)C1CC[C@@H]2C(=O)Nc1cc(C(F)(F)F)ccc1C(F)(F)F` (stereo partly drawn) [(1S,9aR,11aS)-6-Chloro-9a,11a-dimethyl-7-oxo-2,3,3a,3b,4,5,7,8,9,9a,9b,10,11,11a-tetradecahydro-1H-cyclopenta[i]phenanthridine-1-carboxylic acid (2,5-bis-trifluoromethyl-phenyl)-amide], in test [1], the Ki amounted to 200 pM.
In general, IC50 refers to the point on the concentration scale where inhibition reaches its midpoint. Lower therefore signals higher potency. In the case of `COc1ccc(CC2c3cc(OC)c(OC)cc3CCN2c2nc(N)c3cc(OC)c(OC)cc3n2)cc1OC` (stereo not drawn) [2-[1-(3,4-Dimethoxy-benzyl)-6,7-dimethoxy-3,4-dihydro-1H-isoquinolin-2-yl]-6,7-dimethoxy-quinazolin-4-ylamine], in test [2], the IC50 was found to be 206000 pM.
`CC1C(=O)CC[C@@]2(C)C1=NCC1C2CC[C@@]2(C)C1CC[C@@H]2C(=O)Nc1cc(C(F)(F)F)ccc1C(F)(F)F` (stereo partly drawn) [(1S,9aR,11aS)-6,9a,11a-Trimethyl-7-oxo-2,3,3a,3b,4,5,7,8,9,9a,9b,10,11,11a-tetradecahydro-1H-cyclopenta[i]phenanthridine-1-carboxylic acid (2,5-bis-trifluoromethyl-phenyl)-amide]: the affinity in test [1], expressed as Ki, was 200 pM.
